Test results taken from patent publication US10858384B2, “Synthetic molecule constructs” (KODE BIOTECH LIMITED, priority 2004, dated 2020).
Like-named read-outs stand apart in the source and are kept apart here. Blank lines part the entries; values can stand above or below the compound they belong to.

How the values were obtained:
[1] = test system: group O red blood cells (RBCs); test: Tube serology of group O RBCs transformed at 37° C. with synthetic glycolipids; type: cell-based, human; parameters: Albaclone anti-A, Tube / Bioclone anti-A, Tube: scale not given here
Description: (§1) Washed packed group O red blood cells (RBCs) (3 parts by volume) and the synthetic glycolipid solution (1 part by volume, varying concentrations) were added to an eppendorf tube. The tube was incubated in a 37° C. waterbath for one hour, mixing every 15 minutes. […]
(§2) Tube serology and Diamed gel-card results for RBCs transformed with the different synthetic molecule constructs are provided in Table 38. Results for the stability of the RBCs transformed with the different synthetic glycolipids at different concentrations are provided in Tables 39 to 44.

RBCs [2] = test: Detectable transformation ability of synthetic glycolipids (agglutination); type: cell-based; details: agglutination with the appropriate antibody
Description: The synthetic glycolipid must also be able to insert into the membrane and be recognisable to the appropriate antibody for transformation to be detected by agglutination. Initial tests on the molecules were to establish solubility and thus eliminate those molecules that were unsuitable for use in the transformation of cells.

RBCs [3] = test: Evaluation of insertion of different lipid tails by agglutination with the relevant antisera; type: cell-based; parameters: scale not given here
Description: Transformation of RBCs with synthetic glycolipids with different lipid tails was first evaluated (Tables 22 and 24).

[4] = Solubility of synthetic glycolipids in hot PBS; type: physicochemical
Description: In the context of this description the phrase “water soluble” means a stable, single phase system is formed when the synthetic molecule construct is contacted with water or saline (such as PBS) in the absence of organic solvents or detergents, and the term “solution” has a corresponding meaning.
For use in the transformation of cells the first criterion that synthetic glycolipids must satisfy is that they are soluble in aqueous solvents, e.g. phosphate buffered saline.
Initial tests on the molecules were to establish solubility and thus eliminate those molecules that were unsuitable for use in the transformation of cells.

[5] = test system: group O red blood cells (RBCs); test: Diamed gel-card agglutination of group O RBCs transformed at 37° C. with synthetic glycolipids; type: cell-based, human; parameters: scale not given here
Description: as §1, §2

Mouse RBCs = test: Tube serology of murine RBCs transformed with H-antigen synthetic glycolipids; type: cell-based; details: for H Antisera IgM, Tube: mouse RBCs; for Agglutination, UEA-1: tube serology
Description: Washed packed mouse RBCs (3 parts by volume) and the synthetic glycolipid solutions (1 part by volume of varying concentrations) were added to an eppendorf tube. The tube was incubated in a 37° C. waterbath for one hour, mixing every 15 minutes. The transformed RBCs were washed 3× with PBS and then suspended in Cellstab™ at the appropriate concentration for serology testing.
Murine RBCs were washed 3× in 1× PBS. 30 μl of packed RBCs were combined with 30 μl of Hdi-sp-Ad-DOPE (VIII), and 30 μl of packed RBCs were combined with 30 μl Galβ-sp-Ad-DOPE (IX), respectively. Both synthetic molecule constructs were at a concentration of 1.0 mg/ml. 30 μl of 1× PBS was added to 30 μl of packed RBCs to act as the control group. Cells were incubated for 90 minutes in a 37° C. shaking water-bath. RBCs were washed 3× in 1× PBS.
Three groups of packed RBCs were incubated with an equal volume of lectin UEA-1 for 30 minutes at room temperature. The lectin was prepared in 1× PBS at a concentration of 0.1 mg/ml. 50 μl of a 3% cell suspension was spun for 15 seconds in an Immunofuge at low speed. Results were read by tube serology.

red blood cells = test: Association of KODE-fluorescein with cell membranes (fluorescence microscope); type: cell-based
Description: FIG. 20. Red blood cells following contact with a synthetic molecule construct (XVI) viewed with a fluorescence microscope at 470 nm under 250× magnification.
A medium to strongly fluorescing cell was considered to indicate a uniform distribution of the molecule across the cell membrane (FIG. 20).

Water solubility ([4]; hot PBS): Yes
SMILES: CCCCCCCCCCCCCCCCCC(=O)OC[C@H](COP(=O)(O)OCCNC(=O)CCCCC(=O)NCCCO[C@@H]1O[C@H](CO)[C@H](O)[C@H](O[C@H]2O[C@H](CO)[C@H](O)[C@H](O)[C@H]2NC(C)=O)[C@H]1O[C@@H]1O[C@@H](C)[C@@H](O)[C@@H](O)[C@@H]1O)OC(=O)CCCCCCCCCCCCCCCCC [Atri-sp-Ad-DSPE (III)]
Albaclone anti-A, Tube ([1]; 0.01 mg/mL): 0 | Bioclone anti-A, Tube ([1]; 0.01 mg/mL): 0 | Albaclone anti-A, Tube ([1]; 0.02 mg/mL): 0 | Bioclone anti-A, Tube ([1]; 0.02 mg/mL): 0 | Albaclone anti-A, Tube ([1]; 0.03 mg/mL): 0 | Bioclone anti-A, Tube ([1]; 0.03 mg/mL): 0 | Albaclone anti-A, Tube ([1]; 0.04 mg/mL): 0 | Bioclone anti-A, Tube ([1]; 0.04 mg/mL): 0 | Albaclone anti-A, Tube ([1]; 0.05 mg/mL): 0 | Bioclone anti-A, Tube ([1]; 0.05 mg/mL): 0 | Detectable transformation ability (RBCs [2]): Yes | Agglutination score (RBCs [3]; 10 μg/mL, Alba anti-A, first series): 0 | Agglutination score (RBCs [3]; 10 μg/mL, Bio anti-A, first series): 0 | Agglutination score (RBCs [3]; 20 μg/mL, Alba anti-A, first series): 0 | Agglutination score (RBCs [3]; 20 μg/mL, Bio anti-A, first series): 0 | Agglutination score (RBCs [3]; 30 μg/mL, Alba anti-A, first series): 0 | Agglutination score (RBCs [3]; 30 μg/mL, Bio anti-A, first series): 0 | Agglutination score (RBCs [3]; 40 μg/mL, Alba anti-A, first series): 0 | Agglutination score (RBCs [3]; 40 μg/mL, Bio anti-A, first series): 0 | Agglutination score (RBCs [3]; 50 μg/mL, Alba anti-A, first series): 0 | Agglutination score (RBCs [3]; 50 μg/mL, Bio anti-A, first series): 0 | Agglutination score (RBCs [3]; 1000 μg/mL, DBA): 0 | Albaclone anti-A, Diamed ([5]; 0.01 mg/mL): 0 | Bioclone anti-A, Diamed ([5]; 0.01 mg/mL): 0 | Albaclone anti-A, Diamed ([5]; 0.05 mg/mL): 0 | Bioclone anti-A, Diamed ([5]; 0.05 mg/mL): 0 | Albaclone anti-A, Diamed ([5]; 0.1 mg/mL): 0 | Bioclone anti-A, Diamed ([5]; 0.1 mg/mL): 0 | Albaclone anti-A, Diamed ([5]; 0.25 mg/mL): 0 | Bioclone anti-A, Diamed ([5]; 0.25 mg/mL): 0

Water solubility [4]: Yes
SMILES: CCCCCCCC/C=C\CCCCCCCC(=O)OC[C@H](COP(=O)(O)OCCNC(=O)CCCCC(=O)NCCCO[C@@H]1O[C@H](CO)[C@H](O)[C@H](O)[C@H]1O)OC(=O)CCCCCCC/C=C\CCCCCCCC [Galβ-sp-Ad-DOPE (IX)]
H Antisera IgM, Tube (Mouse RBCs; 0.01 mg/mL): 0 | H Antisera IgM, Tube (Mouse RBCs; 0.05 mg/mL): 0 | H Antisera IgM, Tube (Mouse RBCs; 0.1 mg/mL): 0 | H Antisera IgM, Tube (Mouse RBCs; 0.25 mg/mL): 0 | Detectable transformation ability (RBCs [2]): lack of detectable transformation and No

SMILES: CCCCCCCC/C=C\CCCCCCCC(=O)OC[C@H](COP(=O)(O)OCCNC(=O)CCCCC(=O)NCCCO[C@@H]1O[C@H](CO)[C@H](O)[C@H](O)[C@H]1O)OC(=O)CCCCCCC/C=C\CCCCCCCC [Galβ]
Agglutination, UEA-1 (Mouse RBCs; Murine RBC, 1 mg/ml): 0

SMILES: CCCCCCCC/C=C\CCCCCCCC(=O)OC[C@H](COP(=O)(O)OCCNC(=O)CCCCC(=O)NCCCO[C@@H]1O[C@H](CO)[C@H](O)[C@H](O)[C@H]1O[C@@H]1O[C@@H](C)[C@@H](O)[C@@H](O)[C@@H]1O)OC(=O)CCCCCCC/C=C\CCCCCCCC [Hdi-sp-Ad-DOPE (VIII)]
H Antisera IgM, Tube (Mouse RBCs; 0.01 mg/mL): 0 | H Antisera IgM, Tube (Mouse RBCs; 0.05 mg/mL): 0 | H Antisera IgM, Tube (Mouse RBCs; 0.1 mg/mL): 0 | H Antisera IgM, Tube (Mouse RBCs; 0.25 mg/mL): 0 | Detection of transformed murine RBCs by anti-H IgM and UEA-1 (Mouse RBCs; 1.0 mg/ml, 37° C. 90 minutes): neither anti-H IgM nor UEA-1 detects | Agglutination, Mouse IgM^H (Mouse RBCs; Murine RBC, 1 mg/ml): 0 | Agglutination, UEA-1 (Mouse RBCs; Murine RBC, 1 mg/ml): 0 | Detectable transformation ability (RBCs [2]): lack of detectable transformation and No | Water solubility ([4]; hot PBS): Yes

SMILES: CCCCCCCCC=CCCCCCCCC(=O)OCC(COP(=O)(O)OCCNC(=O)CCCCC(=O)NCCCCCNC(=S)Nc1ccc(-c2c3ccc(=O)cc-3oc3cc(O)ccc23)c(C(=O)O)c1)OC(=O)CCCCCCCC=CCCCCCCCC (centres unmarked) [KODE-fluorescein (I)]
Association with the membrane of red blood cells (red blood cells): readily associates | Concentration of dispersion at which insertion is observed (red blood cells): greater than 0.1 mg/ml | Period for which incorporation and distribution appears stable (red blood cells; cells stored in the dark): at least 40 days
